Data as given in paper PMC8343220, “The selectivity of α‐adrenoceptor agonists for the human α1A, α1B, and α1D‐adrenoceptors” (Pharmacology Research & Perspectives, 2021).

Columns and labels:
human α1A‐adrenoceptor [1] = target: T1, human α1A‐adrenoceptor (Homo sapiens, UniProt P35348); assay: ^3H‐prazosin whole‐cell radioligand binding, CHO‐α1A cells; conditions: for Kd: CHO‐α1A cells, given as log KD (negative), mean ± SEM; for Affinity selectivity ratio α1A vs α1B: higher affinity for α1A than α1B; for Affinity selectivity ratio α1A vs α1D: higher affinity for α1A than α1D
T1 construct: expressed in transfected cells; host or cells: CHO-K1
T1 sequence (P35348 1-466): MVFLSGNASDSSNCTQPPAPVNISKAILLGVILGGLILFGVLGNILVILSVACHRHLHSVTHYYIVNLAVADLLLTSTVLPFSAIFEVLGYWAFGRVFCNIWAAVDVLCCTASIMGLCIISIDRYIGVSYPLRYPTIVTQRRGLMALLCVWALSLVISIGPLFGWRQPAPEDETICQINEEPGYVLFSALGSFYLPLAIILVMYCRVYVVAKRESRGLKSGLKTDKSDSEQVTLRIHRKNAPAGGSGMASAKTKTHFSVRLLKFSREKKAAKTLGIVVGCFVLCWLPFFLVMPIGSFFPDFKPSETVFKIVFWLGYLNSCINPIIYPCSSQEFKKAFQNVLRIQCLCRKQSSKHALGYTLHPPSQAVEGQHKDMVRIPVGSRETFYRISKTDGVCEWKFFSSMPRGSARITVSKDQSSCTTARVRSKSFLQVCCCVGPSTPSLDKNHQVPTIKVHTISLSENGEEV

human α1B‐adrenoceptor [2] = target: T2, human α1B‐adrenoceptor (Homo sapiens, UniProt P35368); assay: ^3H‐prazosin whole‐cell radioligand binding, CHO‐α1B cells; conditions: for Affinity selectivity ratio α1B vs α1D: left sub‐column: higher affinity for α1B than α1D
T2 construct: expressed in transfected cells; host or cells: CHO-K1
T2 sequence (P35368 1-520): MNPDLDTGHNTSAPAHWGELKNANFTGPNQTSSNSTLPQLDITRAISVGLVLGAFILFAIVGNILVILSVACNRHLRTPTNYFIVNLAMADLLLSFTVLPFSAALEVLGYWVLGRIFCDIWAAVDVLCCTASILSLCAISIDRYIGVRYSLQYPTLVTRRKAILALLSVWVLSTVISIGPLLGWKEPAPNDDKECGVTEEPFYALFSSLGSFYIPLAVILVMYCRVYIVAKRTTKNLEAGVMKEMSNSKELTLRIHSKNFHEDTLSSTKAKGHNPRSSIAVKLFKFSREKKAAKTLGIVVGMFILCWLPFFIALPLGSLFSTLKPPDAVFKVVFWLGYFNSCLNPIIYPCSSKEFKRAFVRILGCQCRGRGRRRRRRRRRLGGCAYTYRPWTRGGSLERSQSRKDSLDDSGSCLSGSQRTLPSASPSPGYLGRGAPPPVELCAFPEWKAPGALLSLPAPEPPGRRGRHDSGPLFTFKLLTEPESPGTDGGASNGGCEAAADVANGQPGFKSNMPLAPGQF

human α1B‐adrenoceptor [3] = target: T2, human α1B‐adrenoceptor; assay: Intracellular free calcium mobilization, CHO‐α1B cells; assay type: cell-based; conditions: for EC50: given as log EC50 (negative numbers), read-out: Intracellular calcium release Log EC50 (converted); for Log efficacy ratio KD /EC50: intrinsic efficacy ratio, KD from binding / EC50 calcium; for Intracellular calcium release % ionomycin: maximal response as % of 10 µM ionomycin response
[4] = target: T3, human α1D‐adrenoceptor (full length) (Homo sapiens, UniProt P25100); assay: Intracellular free calcium mobilization, CHO‐α1D cells; assay type: cell-based; conditions: CHO‐α1D cells; for Log efficacy ratio KD /EC50: intrinsic efficacy ratio, binding KD / calcium EC50; for Intracellular calcium release % ionomycin: maximal response as % of 10 µM ionomycin; for EC50: read-out: Intracellular calcium release Log EC50 (converted)
T3 construct: human α1D‐adrenoceptor (full length) were used; expressed in transfected cells; host or cells: CHO-K1
T3 sequence (P25100 1-572): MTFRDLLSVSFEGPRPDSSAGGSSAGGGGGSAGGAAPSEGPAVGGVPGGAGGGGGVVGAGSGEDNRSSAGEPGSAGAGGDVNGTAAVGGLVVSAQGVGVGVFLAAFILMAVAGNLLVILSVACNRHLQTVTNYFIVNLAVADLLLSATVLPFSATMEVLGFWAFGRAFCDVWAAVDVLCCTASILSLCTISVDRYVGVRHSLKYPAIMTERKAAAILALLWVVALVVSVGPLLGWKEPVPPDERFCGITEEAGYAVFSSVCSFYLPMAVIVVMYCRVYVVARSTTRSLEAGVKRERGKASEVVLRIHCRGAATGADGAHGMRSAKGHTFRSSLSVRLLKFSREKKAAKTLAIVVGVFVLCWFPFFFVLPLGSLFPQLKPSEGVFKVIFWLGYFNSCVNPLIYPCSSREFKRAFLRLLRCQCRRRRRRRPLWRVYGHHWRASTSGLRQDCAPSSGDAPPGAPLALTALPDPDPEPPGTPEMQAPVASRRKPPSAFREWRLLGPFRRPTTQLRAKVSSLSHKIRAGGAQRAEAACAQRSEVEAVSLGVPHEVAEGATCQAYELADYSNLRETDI

human α1A‐adrenoceptor [5] = target: T1, human α1A‐adrenoceptor; assay: ERK1/2‐phosphorylation (Surefire Alphascreen), CHO‐α1A cells; assay type: cell-based; conditions: CHO‐α1A cells, ^a bi‐phasic: initial stimulatory part; for EC50: 2–4 min, ^b also active in parent CHO cells, read-out: ERK1/2‐phosphorylation Log EC50 (converted); for ERK1/2‐phosphorylation % PDBu: % of 10 µM PDBu
[6] = target: T3, human α1D‐adrenoceptor (full length); assay: ERK1/2‐phosphorylation (Surefire Alphascreen), CHO‐α1D cells; assay type: cell-based; conditions: CHO‐α1D cells; for EC50: log values given negative, read-out: ERK1/2‐phosphorylation Log EC50 (converted); for ERK1/2‐phosphorylation % PDBu: maximal response as % of PDBu
[7] = test system: parental CHO cell line without any transfected receptors; assay: ERK1/2‐phosphorylation, parent CHO cells without transfected receptors; assay type: cell-based, Chinese hamster; conditions: for Emax at 100 µM: Cricetulus griseus, CHO, read-out: ERK1/2-phosphorylation % PDBu at 100μM
human α1B‐adrenoceptor [8] = target: T2, human α1B‐adrenoceptor; assay: ^3H‐cAMP accumulation, CHO‐α1B cells; assay type: cell-based; conditions: CHO‐α1B cells; for cAMP accumulation % forskolin: % forskolin maximum response; for EC50: read-out: cAMP accumulation Log EC50 (converted)
[9] = target: T3, human α1D‐adrenoceptor (full length); assay: ^3H‐cAMP accumulation, CHO‐α1D cells; assay type: cell-based; conditions: cAMP accumulation without forskolin
human α1A‐adrenoceptor [10] = target: T1, human α1A‐adrenoceptor; assay: ^3H‐cAMP accumulation in the presence of 10 μM forskolin, CHO‐α1A cells; assay type: cell-based; conditions: CHO‐α1A cells; for EC50: 10 μM forskolin, read-out: cAMP accumulation (in presence of forskolin) Log EC50 (converted); for cAMP accumulation (in presence of forskolin) Fold increase: fold increase of the forskolin response
human α1B‐adrenoceptor [11] = target: T2, human α1B‐adrenoceptor; assay: ^3H‐cAMP accumulation in the presence of 10 μM forskolin, CHO‐α1B cells; assay type: cell-based; conditions: CHO‐α1B cells; for cAMP accumulation (in presence of forskolin) Fold increase: fold increase of the forskolin response; for EC50: in presence of forskolin, read-out: cAMP accumulation (in presence of forskolin) Log EC50 (converted)
[12] = target: T3, human α1D‐adrenoceptor (full length); assay: ^3H‐cAMP accumulation in the presence of 10 μM forskolin, CHO‐α1D cells; assay type: cell-based; conditions: CHO‐α1D cells; for cAMP (in presence of forskolin) Fold increase: fold increase of the forskolin response; for cAMP (in presence of forskolin) Log EC50 / EC50: log values given negative, in presence of forskolin
[13] = test system: parental CHO cell line without any transfected receptors; assay: Forskolin‐stimulated cAMP accumulation, parent CHO cells without transfected receptors; assay type: cell-based, Chinese hamster; conditions: CHO cells without transfected receptors
[14] = Log KD α1B, ^3H‐prazosin whole cell binding, CHO‐α1B cells, given as log KD (negative), mean ± SEM
[15] = Log KD, ^3H‐prazosin binding, CHO‐α1B cells, whole‐cell binding (from Table 1), given as log KD (negative numbers)

SMILES | Kd (human α1A‐adrenoceptor [1]) [µM] | Affinity selectivity ratio α1A vs α1B (human α1A‐adrenoceptor [1]) [fold] | Affinity selectivity ratio α1A vs α1D (human α1A‐adrenoceptor [1]) [fold] | EC50 (human α1B‐adrenoceptor [3]; CHO‐α1B cells) [µM] | Log efficacy ratio KD /EC50 (human α1B‐adrenoceptor [3]; CHO‐α1B cells) | Intracellular calcium release % ionomycin (human α1B‐adrenoceptor [3]; CHO‐α1B cells) [%] | Log efficacy ratio KD /EC50 [4] | Intracellular calcium release % ionomycin [4] [%] | EC50 (human α1A‐adrenoceptor [5]) [µM] | ERK1/2‐phosphorylation % PDBu (human α1A‐adrenoceptor [5]) [%] | EC50 [6] [µM] | ERK1/2‐phosphorylation % PDBu [6] [%] | cAMP accumulation % forskolin (human α1B‐adrenoceptor [8]) | cAMP Log EC50 [9] | EC50 (human α1A‐adrenoceptor [10]) [µM] | cAMP accumulation (in presence of forskolin) Fold increase (human α1A‐adrenoceptor [10]) [fold] | cAMP accumulation (in presence of forskolin) Fold increase (human α1B‐adrenoceptor [11]) [fold] | EC50 (human α1B‐adrenoceptor [11]) [µM] | cAMP (in presence of forskolin) Fold increase [12] | EC50 ([4]; log values given negative) [µM] | further results
c1ccc(C2CC2)c(OCC2=NCCN2)c1 [Cirazoline] | 0.676 | 11.7 | 4.4 | 0.00891 | 2.95 | 53.3 ± 1.5 | 1.37 | 17.3 ± 3.8 | 0.000955 | 80.8 ± 3.6 | 3.8 | 36.5 ± 3.2 | 11.4 ± 2.4% | No response | 0.0107 | 2.38 ± 0.15 | 2.09 ± 0.13 | 0.0398 | No response | – | Kd (human α1B‐adrenoceptor [2]; CHO‐α1B cells, given as log KD (negative), mean ± SEM): 7.94 µM; Intracellular calcium release Log EC50 ([4]; log values given negative): −6.90 ± 0.09; Emax at 100 µM [7]: 33.4 ± 7.6%; EC50 (human α1B‐adrenoceptor [8]): 0.12 µM; cAMP (in presence of forskolin) Log EC50 [12]: No response; cAMP accumulation (in presence of forskolin) % forskolin-stim cAMP at 100μM ([13]; response at 100μM only, EC50 not obtainable, % of forskolin-stimulated cAMP): 82.4 ± 2.8%
c1ccc2c(CC3=NCCN3)cccc2c1 [Naphazoline] | – | 6.3 | 7.1 | 0.00933 | 2.29 | 38.9 ± 2.9 | 1.24 | 11.8 ± 2.2 | 0.00407 | 90.9 ± 4.4 | 13.8 | 33.0 ± 4.7 | 3.9 ± 0.7% | No response | 0.0417 | 2.18 ± 0.05 | 1.65 ± 0.07 | 0.0055 | No response | 0.117 | Kd (human α1A‐adrenoceptor [1]; Log KD α1A, ^3H‐prazosin whole cell binding): 0.288 µM; Kd (human α1B‐adrenoceptor [2]; [14]): 1.82 µM; Kd (human α1B‐adrenoceptor [2]; [15]): 1.82 µM; Affinity selectivity ratio α1B vs α1D (human α1B‐adrenoceptor [2]): 1.1 fold; Emax at 100 µM [7]: 9.2 ± 3.3%; EC50 (human α1B‐adrenoceptor [8]): 0.0129 µM; cAMP (in presence of forskolin) Log EC50 [12]: No response; cAMP accumulation (in presence of forskolin) Log EC50 [13]: No response
CC(CCc1ccc(O)cc1)NCCc1ccc(O)c(O)c1 (stereo not drawn) [Dobutamine] | 0.457 | 7.9 | 9.5 | – | – | – | 2.26 | 10.6 ± 1.8 | 0.0437 | 85.5 ± 4.3 | 0.891 | 26.2 ± 7.5 | No response | No response | 0.661 | 1.98 ± 0.14 | 1.24 ± 0.04 | 2 | 1.16 ± 0.06 | 0.024 | Kd (human α1B‐adrenoceptor [2]; [14]): 3.63 µM; Kd (human α1B‐adrenoceptor [2]; [15]): 3.63 µM; Affinity selectivity ratio α1B vs α1D (human α1B‐adrenoceptor [2]): 1.2 fold; Agonist (calcium) response in CHO‐α1B cells (human α1B‐adrenoceptor [3]): did not stimulate any measurable; Intracellular calcium release % Ionomycin at 100 µM (human α1B‐adrenoceptor [3]; CHO‐α1B cells, response at 100 µM ligand (no EC50 given), % of ionomycin response): 3.0 ± 1.1%; ERK1/2-phosphorylation % PDBu at 10μM ([7]; CHO cells without transfected receptors, response at 10μM only, EC50 not obtainable, % of PDBu (10μM)): 16.4 ± 5.9%; cAMP accumulation Log EC50 (human α1B‐adrenoceptor [8]): No response; EC50 [12]: 0.309 µM; cAMP accumulation (in presence of forskolin) Log EC50 [13]: No response
C[C@H](N)[C@H](O)c1cccc(O)c1 [Metaraminol] | 85.1 | >11.7 | – | 0.112 | >3.95 | 60.1 ± 3.1 | 1.87 | 23.1 ± 3.8 | 0.0977 | 83.9 ± 4.1 | 2.69 | 20.5 ± 3.0 | – | No response | 0.813 | 2.54 ± 0.11 | 2.58 ± 0.07 | 1.48 | 1.19 ± 0.04 | 0.759 | IC50 (human α1B‐adrenoceptor [2]; CHO‐α1B cells, printed as IC50> log value): > 1000 µM; ERK1/2-phosphorylation % PDBu ([7]; CHO cells without transfected receptors, maximal response as % of PDBu (10μM) response, mean ± s.e.m.): No response; ERK1/2-phosphorylation Log EC50 ([7]; CHO cells without transfected receptors, mean ± s.e.m.): No response; cAMP accumulation % forskolin at 100 µM (human α1B‐adrenoceptor [8]; response at 100 µM ligand (no EC50 given)): 42.0 ± 5.1%; EC50 [12]: 0.324 µM; cAMP accumulation (in presence of forskolin) Log EC50 [13]: No response
